The results in this text go back to paper PMC5666424, “Marine-Derived 2-Aminoimidazolone Alkaloids. Leucettamine B-Related Polyandrocarpamines Inhibit Mammalian and Protozoan DYRK & CLK Kinases” (Marine Drugs, 2017).

Each structure is given as a SMILES string. Like-named read-outs stand apart in the source and are kept apart here. Bounds are passed on as bounds.

The target in one assay is T1, CDK5/p25 (Homo sapiens, UniProt Q00535).
T1 construct: made in house
Nature of the assay: Protein kinase assay. It is filed as biochemical.

In a further assay the target is T2, DYRK3 (Homo sapiens, UniProt O43781).
T2 sequence (O43781 1-588): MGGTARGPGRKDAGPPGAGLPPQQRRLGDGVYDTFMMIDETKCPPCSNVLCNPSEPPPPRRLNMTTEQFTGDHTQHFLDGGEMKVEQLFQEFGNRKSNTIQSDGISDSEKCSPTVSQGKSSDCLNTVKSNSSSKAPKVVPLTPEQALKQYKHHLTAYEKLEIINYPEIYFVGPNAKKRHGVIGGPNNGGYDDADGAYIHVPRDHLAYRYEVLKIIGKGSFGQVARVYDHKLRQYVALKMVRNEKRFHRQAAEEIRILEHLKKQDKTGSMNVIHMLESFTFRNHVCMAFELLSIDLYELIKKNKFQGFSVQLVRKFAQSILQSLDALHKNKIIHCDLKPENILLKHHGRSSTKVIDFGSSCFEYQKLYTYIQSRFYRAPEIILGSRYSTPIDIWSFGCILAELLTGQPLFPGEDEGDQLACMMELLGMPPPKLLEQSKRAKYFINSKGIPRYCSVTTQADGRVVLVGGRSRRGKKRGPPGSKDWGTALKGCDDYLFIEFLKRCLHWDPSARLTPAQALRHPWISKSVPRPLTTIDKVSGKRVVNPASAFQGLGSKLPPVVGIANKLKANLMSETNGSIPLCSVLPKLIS
Nature of the assay: Protein kinase assay. The class given is biochemical.

The next assay deals with GSK-3α/β. Nature of the assay: Protein kinase assay. It is filed as biochemical, porcine. Conditions: 15 μmol/L ATP.
The target in another assay is T3, DYRK2 (Homo sapiens, UniProt Q92630).
T3 sequence (Q92630 1-601): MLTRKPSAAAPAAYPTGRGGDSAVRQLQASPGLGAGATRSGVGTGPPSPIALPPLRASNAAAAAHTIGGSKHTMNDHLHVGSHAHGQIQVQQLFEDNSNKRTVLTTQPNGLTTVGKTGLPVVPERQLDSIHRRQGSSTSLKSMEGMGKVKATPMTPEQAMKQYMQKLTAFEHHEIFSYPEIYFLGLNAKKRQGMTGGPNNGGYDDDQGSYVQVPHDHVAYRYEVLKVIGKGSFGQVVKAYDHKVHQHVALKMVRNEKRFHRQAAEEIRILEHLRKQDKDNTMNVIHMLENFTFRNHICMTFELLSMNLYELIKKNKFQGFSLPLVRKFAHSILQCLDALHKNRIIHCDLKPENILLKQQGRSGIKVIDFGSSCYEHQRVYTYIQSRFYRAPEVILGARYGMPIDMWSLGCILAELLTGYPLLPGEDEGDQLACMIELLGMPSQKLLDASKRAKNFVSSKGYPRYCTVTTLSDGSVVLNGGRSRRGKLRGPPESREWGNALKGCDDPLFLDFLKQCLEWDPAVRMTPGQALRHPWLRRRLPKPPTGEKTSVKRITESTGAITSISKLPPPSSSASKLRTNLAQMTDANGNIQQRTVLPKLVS
Nature of the assay: Protein kinase assay. It is filed as biochemical.

The test system of assay [1] is 27 purified kinases (14 mammalian and 13 unicellular parasites). As to the kind of experiment: Battery of 27 purified kinases.
Source text: We tested a selection of these 2-aminoimidazolones (Figure 1) on a battery of 27 purified kinases (14 mammalian and 13 unicellular parasites (Supplementary Table S3)).
Another assay concerns the target T4, CSNK1G2 (Homo sapiens, UniProt P78368).
T4 construct: purchased DiscoverX (KINOMEscan)
As to the kind of experiment: KinomeScan. Conditions: 1 μM. It is filed as binding. How it is done:
(§1) Assays were performed essentially as described previously. For most assays, kinase-tagged T7 phage strains were grown in parallel in 24-well blocks in an E. coli host derived from the BL21 strain. E. coli were grown to log-phase and infected with T7 phage from a frozen stock (multiplicity of infection ~0.1) and incubated with shaking at 32 °C until lysis (~90 min). The lysates were centrifuged (6000× g) and filtered (0.2 μm) to remove cell debris. The remaining kinases were produced in HEK-293 cells and subsequently tagged with DNA for qPCR detection. […] The liganded beads were blocked with excess biotin and washed with blocking buffer (SeaBlock (Pierce, ThermoFisher Scientific, Illkirch, France), 1% BSA, 0.05% Tween 20, 1 mM DTT) to remove unbound ligand and to reduce non-specific phage binding. […] An 11-point threefold serial dilution of each test compound was prepared in 100% DMSO at 100× final test concentration which and subsequently diluted to 1× in the assay. All reactions were performed in polystyrene 96-well plates in a final volume of 0.135 mL. […] The kinase concentration in the eluates was measured by qPCR.

A further assay concerns the target T5, SLK (Homo sapiens, UniProt Q9H2G2).
T5 construct: purchased DiscoverX (KINOMEscan)
Nature of the assay: KinomeScan. It is filed as binding. The settings on record: 1 μM. How it is done: as §1

Another assay concerns the target T6, AKT2 (Homo sapiens, UniProt P31751).
T6 construct: purchased DiscoverX (KINOMEscan)
As to the kind of experiment: KinomeScan. Conditions: 1 μM. The class given is binding. How it is done: as §1

For assay [2], the target named is T7, ABL1(Q252H)-nonphosphorylated (Homo sapiens, UniProt P00519, Q252H).
T7 construct: purchased DiscoverX (KINOMEscan)
Nature of the assay: KinomeScan. The settings on record: 1 μM. It is filed as binding. How it is done:
as §1

The target of another assay is T8, FES (Homo sapiens, UniProt P07332).
T8 construct: purchased DiscoverX (KINOMEscan)
T8 sequence (P07332 whole entry): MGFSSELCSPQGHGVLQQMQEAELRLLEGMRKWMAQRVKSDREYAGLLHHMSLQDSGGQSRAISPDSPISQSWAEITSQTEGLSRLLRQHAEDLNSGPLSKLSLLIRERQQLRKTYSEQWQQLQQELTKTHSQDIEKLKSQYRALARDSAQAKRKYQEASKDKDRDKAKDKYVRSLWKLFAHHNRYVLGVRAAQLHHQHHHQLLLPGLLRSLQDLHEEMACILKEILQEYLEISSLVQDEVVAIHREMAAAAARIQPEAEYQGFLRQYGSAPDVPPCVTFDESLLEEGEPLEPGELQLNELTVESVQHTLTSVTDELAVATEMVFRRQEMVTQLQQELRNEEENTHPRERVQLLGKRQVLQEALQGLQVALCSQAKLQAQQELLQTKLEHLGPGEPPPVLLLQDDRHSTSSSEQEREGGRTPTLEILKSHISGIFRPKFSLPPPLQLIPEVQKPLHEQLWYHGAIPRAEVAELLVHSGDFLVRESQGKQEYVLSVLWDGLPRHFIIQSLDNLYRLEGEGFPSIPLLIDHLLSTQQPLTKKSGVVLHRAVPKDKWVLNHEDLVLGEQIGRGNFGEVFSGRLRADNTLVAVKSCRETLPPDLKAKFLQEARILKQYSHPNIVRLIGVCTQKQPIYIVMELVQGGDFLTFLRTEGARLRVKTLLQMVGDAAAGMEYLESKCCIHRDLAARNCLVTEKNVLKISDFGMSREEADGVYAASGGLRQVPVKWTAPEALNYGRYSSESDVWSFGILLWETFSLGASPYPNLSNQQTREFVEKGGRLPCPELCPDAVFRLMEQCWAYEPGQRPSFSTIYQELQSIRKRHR
As to the kind of experiment: KinomeScan. The settings on record: 1 μM. The class given is binding. How it is done:
as §1

In the next assay the target is T9, OSR1 (Homo sapiens, UniProt O95747).
T9 construct: purchased DiscoverX (KINOMEscan)
T9 sequence (O95747 whole entry): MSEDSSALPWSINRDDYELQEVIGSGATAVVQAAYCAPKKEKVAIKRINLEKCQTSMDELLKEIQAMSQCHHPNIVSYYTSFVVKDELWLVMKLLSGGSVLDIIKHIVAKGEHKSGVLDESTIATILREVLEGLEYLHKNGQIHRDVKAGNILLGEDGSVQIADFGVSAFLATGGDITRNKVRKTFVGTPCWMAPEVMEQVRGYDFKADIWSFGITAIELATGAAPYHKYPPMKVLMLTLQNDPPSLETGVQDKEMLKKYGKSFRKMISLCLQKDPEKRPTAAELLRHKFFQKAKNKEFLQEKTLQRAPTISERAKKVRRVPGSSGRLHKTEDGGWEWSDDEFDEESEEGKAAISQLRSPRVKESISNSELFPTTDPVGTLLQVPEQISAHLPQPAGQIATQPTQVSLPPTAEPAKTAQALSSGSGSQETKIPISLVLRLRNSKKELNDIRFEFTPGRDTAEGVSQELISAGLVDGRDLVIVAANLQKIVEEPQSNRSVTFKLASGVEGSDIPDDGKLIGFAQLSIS
As to the kind of experiment: KinomeScan. The class given is binding. The settings on record: 1 μM. How it is done: as §1

A further assay deals with T10, INSR (Homo sapiens, UniProt P06213).
T10 construct: purchased DiscoverX (KINOMEscan)
Nature of the assay: KinomeScan. It is filed as binding. The settings on record: 1 μM. The protocol:
as §1

The target of a further assay is T11, TLK2 (Homo sapiens, UniProt Q86UE8).
T11 construct: purchased DiscoverX (KINOMEscan)
T11 sequence (Q86UE8 whole entry): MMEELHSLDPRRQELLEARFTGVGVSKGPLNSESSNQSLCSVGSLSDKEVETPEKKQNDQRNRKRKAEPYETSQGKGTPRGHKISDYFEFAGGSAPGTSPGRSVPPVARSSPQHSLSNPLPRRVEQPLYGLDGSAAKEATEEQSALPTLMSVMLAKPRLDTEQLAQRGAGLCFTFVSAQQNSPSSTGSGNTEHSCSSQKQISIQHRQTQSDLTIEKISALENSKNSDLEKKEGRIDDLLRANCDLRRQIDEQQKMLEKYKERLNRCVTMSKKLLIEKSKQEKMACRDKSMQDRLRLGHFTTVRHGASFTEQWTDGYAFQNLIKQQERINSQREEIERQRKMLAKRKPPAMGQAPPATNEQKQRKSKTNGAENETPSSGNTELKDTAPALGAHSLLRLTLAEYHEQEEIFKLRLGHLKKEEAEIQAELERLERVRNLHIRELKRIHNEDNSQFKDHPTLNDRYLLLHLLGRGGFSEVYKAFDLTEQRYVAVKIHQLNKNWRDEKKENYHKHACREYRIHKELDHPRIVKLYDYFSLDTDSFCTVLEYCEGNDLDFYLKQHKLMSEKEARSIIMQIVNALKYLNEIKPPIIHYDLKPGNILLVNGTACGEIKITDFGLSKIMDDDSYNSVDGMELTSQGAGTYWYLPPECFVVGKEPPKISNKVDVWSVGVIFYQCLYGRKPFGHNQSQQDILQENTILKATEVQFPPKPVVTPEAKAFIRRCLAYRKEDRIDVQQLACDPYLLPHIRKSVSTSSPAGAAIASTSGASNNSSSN
Nature of the assay: KinomeScan. It is filed as binding. Conditions: 1 μM. The protocol:
as §1

In the next assay the target is T12, ITK (Homo sapiens, UniProt Q08881).
T12 construct: purchased DiscoverX (KINOMEscan)
Nature of the assay: KinomeScan. The settings on record: 1 μM. It is filed as binding. The protocol: as §1

Another assay deals with T13, MAP3K15 (Homo sapiens, UniProt Q6ZN16).
T13 construct: purchased DiscoverX (KINOMEscan)
As to the kind of experiment: KinomeScan. Conditions: 1 μM. The class given is binding. How it is done:
as §1

Assay [3] concerns the target T14, ABL1(T315I)-phosphorylated (Homo sapiens, UniProt P00519, T315I).
T14 construct: purchased DiscoverX (KINOMEscan)
As to the kind of experiment: KinomeScan. It is filed as binding. Conditions: 1 μM. The protocol: as §1

The target in the next assay is T15, SRPK1 (Homo sapiens, UniProt Q96SB4).
T15 construct: purchased DiscoverX (KINOMEscan)
T15 sequence (Q96SB4 whole entry): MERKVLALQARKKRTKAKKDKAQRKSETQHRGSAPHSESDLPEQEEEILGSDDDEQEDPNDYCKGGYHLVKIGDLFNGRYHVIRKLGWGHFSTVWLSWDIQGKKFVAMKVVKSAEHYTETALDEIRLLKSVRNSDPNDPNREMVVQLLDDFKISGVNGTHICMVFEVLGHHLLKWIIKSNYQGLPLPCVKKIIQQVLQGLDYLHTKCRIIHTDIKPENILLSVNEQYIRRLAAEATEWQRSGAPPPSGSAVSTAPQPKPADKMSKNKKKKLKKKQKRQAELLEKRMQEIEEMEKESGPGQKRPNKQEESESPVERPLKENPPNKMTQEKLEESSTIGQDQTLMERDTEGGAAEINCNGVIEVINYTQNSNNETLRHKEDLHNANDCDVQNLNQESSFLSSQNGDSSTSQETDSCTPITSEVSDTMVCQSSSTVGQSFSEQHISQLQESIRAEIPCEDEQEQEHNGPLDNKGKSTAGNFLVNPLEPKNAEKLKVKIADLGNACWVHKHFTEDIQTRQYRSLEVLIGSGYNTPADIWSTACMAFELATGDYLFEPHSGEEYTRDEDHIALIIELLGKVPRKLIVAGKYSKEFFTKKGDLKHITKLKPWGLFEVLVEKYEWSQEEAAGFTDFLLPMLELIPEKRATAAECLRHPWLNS
Nature of the assay: KinomeScan. Conditions: 1 μM. It is filed as binding. The protocol:
as §1

A further assay concerns the target T16, NEK3 (Homo sapiens, UniProt P51956).
T16 construct: purchased DiscoverX (KINOMEscan)
As to the kind of experiment: KinomeScan. The class given is binding. The settings on record: 1 μM. How it is done:
as §1

The target of another assay is T17, EGFR(E746-A750del) (Homo sapiens, UniProt P00533, DEL746-750).
T17 construct: purchased DiscoverX (KINOMEscan)
As to the kind of experiment: KinomeScan. It is filed as binding. The settings on record: 1 μM. The protocol:
as §1

Another assay deals with T18, ERBB2 (Homo sapiens, UniProt P04626).
T18 construct: purchased DiscoverX (KINOMEscan)
As to the kind of experiment: KinomeScan. It is filed as binding. Conditions: 1 μM. The protocol: as §1

Setting [4] is: 15 μmol/L ATP, read-out: IC50 CDK5/p25.
Setting [5] is: 15 μmol/L ATP, read-out: IC50 DYRK3.
Setting [6] is: 15 μmol/L ATP, read-out: IC50 DYRK2.

T1 sequence (Q00535 whole entry): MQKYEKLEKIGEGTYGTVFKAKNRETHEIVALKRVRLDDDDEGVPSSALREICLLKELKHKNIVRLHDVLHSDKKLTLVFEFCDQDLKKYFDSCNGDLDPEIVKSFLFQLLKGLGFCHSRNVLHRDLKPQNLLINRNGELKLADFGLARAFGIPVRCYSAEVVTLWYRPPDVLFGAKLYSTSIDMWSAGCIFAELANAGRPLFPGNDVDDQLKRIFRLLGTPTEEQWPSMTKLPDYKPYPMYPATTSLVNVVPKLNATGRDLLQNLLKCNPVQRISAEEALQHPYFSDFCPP
T1 sequence (Q15078 99-307 partner limits assumed): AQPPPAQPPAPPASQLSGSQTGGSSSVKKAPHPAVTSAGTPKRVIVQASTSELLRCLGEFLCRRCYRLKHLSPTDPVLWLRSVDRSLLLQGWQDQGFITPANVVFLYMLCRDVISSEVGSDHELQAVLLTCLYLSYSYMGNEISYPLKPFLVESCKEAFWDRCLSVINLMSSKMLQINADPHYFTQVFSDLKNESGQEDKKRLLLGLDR
T16 sequence (P51956 whole entry): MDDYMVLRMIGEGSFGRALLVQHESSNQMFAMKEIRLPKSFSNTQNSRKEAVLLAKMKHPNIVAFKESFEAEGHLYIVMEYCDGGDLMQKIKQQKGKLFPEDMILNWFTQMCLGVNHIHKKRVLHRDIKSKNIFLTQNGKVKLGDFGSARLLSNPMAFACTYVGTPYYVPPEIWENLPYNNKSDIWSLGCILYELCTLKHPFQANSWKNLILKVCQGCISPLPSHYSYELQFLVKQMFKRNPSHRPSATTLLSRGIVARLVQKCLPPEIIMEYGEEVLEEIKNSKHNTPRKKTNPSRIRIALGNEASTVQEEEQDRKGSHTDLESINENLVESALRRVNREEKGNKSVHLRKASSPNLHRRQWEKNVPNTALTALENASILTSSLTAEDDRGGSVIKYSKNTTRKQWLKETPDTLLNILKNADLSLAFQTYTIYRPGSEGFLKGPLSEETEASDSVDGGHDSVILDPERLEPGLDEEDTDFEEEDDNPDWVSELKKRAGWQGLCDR
T5 sequence (Q9H2G2 whole entry): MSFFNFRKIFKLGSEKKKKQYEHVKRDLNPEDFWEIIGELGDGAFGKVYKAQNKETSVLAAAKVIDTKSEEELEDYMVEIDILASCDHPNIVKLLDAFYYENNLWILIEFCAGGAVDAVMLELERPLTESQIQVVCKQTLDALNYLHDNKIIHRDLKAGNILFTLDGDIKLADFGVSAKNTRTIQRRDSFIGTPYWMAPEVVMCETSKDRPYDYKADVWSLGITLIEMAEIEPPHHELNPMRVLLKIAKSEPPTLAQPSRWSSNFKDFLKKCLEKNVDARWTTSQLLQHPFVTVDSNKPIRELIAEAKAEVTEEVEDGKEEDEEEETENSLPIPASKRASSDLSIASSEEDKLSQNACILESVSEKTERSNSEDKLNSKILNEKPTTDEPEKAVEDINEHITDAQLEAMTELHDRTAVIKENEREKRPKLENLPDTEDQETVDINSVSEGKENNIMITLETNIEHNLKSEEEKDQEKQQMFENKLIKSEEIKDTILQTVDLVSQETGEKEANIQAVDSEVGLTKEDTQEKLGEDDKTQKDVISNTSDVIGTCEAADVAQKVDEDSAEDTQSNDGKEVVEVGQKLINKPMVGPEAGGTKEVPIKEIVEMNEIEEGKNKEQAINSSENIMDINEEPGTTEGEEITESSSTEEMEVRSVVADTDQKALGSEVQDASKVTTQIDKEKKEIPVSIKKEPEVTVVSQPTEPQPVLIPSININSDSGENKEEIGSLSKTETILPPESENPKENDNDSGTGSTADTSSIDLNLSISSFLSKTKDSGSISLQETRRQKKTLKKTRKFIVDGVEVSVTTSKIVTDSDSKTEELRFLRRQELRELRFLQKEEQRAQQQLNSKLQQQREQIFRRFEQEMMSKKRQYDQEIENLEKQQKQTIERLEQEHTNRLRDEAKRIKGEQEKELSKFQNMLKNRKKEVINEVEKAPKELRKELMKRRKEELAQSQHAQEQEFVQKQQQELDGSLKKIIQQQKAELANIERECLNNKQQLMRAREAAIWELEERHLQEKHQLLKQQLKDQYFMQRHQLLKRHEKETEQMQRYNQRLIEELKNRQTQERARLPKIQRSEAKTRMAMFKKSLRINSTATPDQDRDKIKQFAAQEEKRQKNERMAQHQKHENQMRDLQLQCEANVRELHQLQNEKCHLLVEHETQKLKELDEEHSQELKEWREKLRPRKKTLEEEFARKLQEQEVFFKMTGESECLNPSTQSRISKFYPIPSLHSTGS

In the case of `NC1=NC(=O)/C(=C2\CCNC(=O)c3[nH]cc(Br)c32)N1` [Spongiacidin B], the IC50 on CDK5/p25 (setting [4]) came to 42 nM; on DYRK3 (setting [5]), 44 nM; against GSK-3α/β, 44 nM; at DYRK2 (setting [6]) it was 21 nM.

For `NC1=N/C(=C\CCNC(=O)c2cc(Br)c(Br)[nH]2)C(=O)N1` [Dispacamide], the IC50 at CDK5/p25 (setting [4]), at DYRK3 (setting [5]), at GSK-3α/β and on DYRK2 (setting [6]) was over 10000 nM in each case. In [1], the “activity in the kinase panel” value was “essentially inactive”.

As to `CN1C(=O)/C(=C/c2ccc3c(c2)OCO3)N=C1N` [Leucettamine B], the IC50 is 600 nM against DYRK3 (IC50 DYRK3, 15 μmol/L ATP); 7300 nM against GSK-3α/β; 490 nM against DYRK2 (IC50 DYRK2, 15 μmol/L ATP). Further, the “activity in the kinase panel” value in assay [1] is on record as “modestly active”.

Turning to `COc1cc(/C=C2\N=C(N)NC2=O)ccc1O` [Polyandrocarpamine A], the IC50 on CDK5/p25 (setting [4]) is over 10000 nM; on DYRK3 (setting [5]), 170 nM; on DYRK2 (setting [6]), 420 nM. Moreover, the Score at CSNK1G2 is recorded as 100; on SLK it was 100; on AKT2, 100; in assay [2] it was 100; at FES it was 96; at OSR1, 100. Moreover, the Score at INSR is given as 90; at TLK2 it was 100; at ITK, 94; on MAP3K15, 100; in assay [3], 85; on SRPK1, 100. Further, the Score at NEK3, at EGFR(E746-A750del) and at ERBB2 was 100 each time.

Consider `NC1=N/C(=C\c2ccc(O)c(O)c2)C(=O)N1` [Polyandrocarpamine B], for which the IC50 at CDK5/p25 (setting [4]) was over 10000 nM; on DYRK3 (setting [5]) it was 880 nM; against GSK-3α/β it was over 10000 nM; on DYRK2 (setting [6]), 760 nM.

On to `CN1C(=N)N(C)/C(=C\c2c[nH]c3ccccc23)C1=O` [Aplysinopsine], for which the IC50 at CDK5/p25 (setting [4]), at DYRK3 (setting [5]), against GSK-3α/β and on DYRK2 (setting [6]) was over 10000 nM each time. For the same molecule, the “activity in the kinase panel” value in assay [1] is “essentially inactive”.

As for `CN1C(=N)N=C(Nc2nc(Cc3ccc4c(c3)OCO4)cn2C)C1=O` [Clathridimine], the IC50 is over 10000 nM on CDK5/p25 (setting [4]), 6100 nM at DYRK3 (setting [5]), over 10000 nM against GSK-3α/β and 6200 nM on DYRK2 (setting [6]). Besides, in [1], the “activity in the kinase panel” value was “essentially inactive”.

On to `NC1=NC(=O)/C(=C2\CCNC(=O)c3[nH]c(Br)cc32)N1` [Hymenialdisine, reference compound], for which the IC50 against CDK5/p25 amounted to 6.1 nM; at DYRK3 (setting [5]) it was 4.9 nM; on GSK-3α/β, 3.2 nM; at DYRK2 (setting [6]) it was 3.1 nM.

`CN1C(=O)N=C(Nc2nc(Cc3ccc4c(c3)OCO4)cn2C)C1=O` [Clathridine]: the IC50 at CDK5/p25 (setting [4]) is over 10000 nM; on DYRK3 (setting [5]), over 10000 nM; against GSK-3α/β it was over 10000 nM; on DYRK2 (setting [6]), 7100 nM. The “activity in the kinase panel” value in assay [1] was “essentially inactive”.
